Data set [1] in a line: Cleavage experiments in FaSSIF medium simulating the intestinal tract. In kind it is in vitro ADME. Particulars: in the presence or absence of pancreatin. The source says:
(§1) By means of cleavage experiments it is shown that reaction products prepared according to the invention or mixtures thereof can be cleaved in the human gastrointestinal tract. The starting mixture used is, on the one hand, a 3-acetoxybutyric acid ethyl ester obtained and purified by the process according to the invention as described hereinabove and, on the other hand, in each case the 3-BHB ethyl esters capped in the 3-position with the carboxylic acid anhydride (heptanoic acid anhydride, lauric acid anhydride or oleic acid anhydride) obtained and purified by the process according to the invention as described hereinabove.
(§2) For the cleavage experiments under near-body conditions two media are investigated: • FaSSGF, which simulates the stomach • FaSSIF, which simulates the intestinal tract
(§3) Both media are from the company Biorelevant®, Ltd. in Great Britain. In addition, in some experiments porcine pancreas is added (Panzytrat® 40,000, Fa. Allergan).
(§4) Under FaSSIF conditions, a lower conversion using Panzytrat® takes place.

The nature of data set [2]: Cleavage experiments in FaSSGF medium simulating the stomach. In kind it is in vitro ADME. Particulars: in the presence or absence of pancreatin.
Source text: as §1, §2, §3, §4

The conditions of data set [3]: even if several grams are taken; patients; cited from earlier work.

Structures are written as SMILES.

The values below come from patent US11492321B2, “Method for producing capped 3-hydroxycarboxylic acids and their salts and esters” (IOI Oleo GmbH, priority 2019, dated 2022).

With `CCOC(=O)CC(C)OC(C)=O` (stereo not drawn) [3-acetoxybutyric acid ethyl ester], the “cleavage in intestinal medium” value in data set [1] is reported as “cleavage to 3-BHB in free form”. In addition, the “cleavage in gastric medium” value in data set [2] was “cleavage to 3-BHB in free form”.
In the case of `CC(O)CC(=O)O` (stereo not drawn) [3-hydroxybutyric acid], the duration of ketosis entry in data set [3] is reported as “three to four”.
